Activity calls are given as the source filed them. No cut-off for these calls is given here.
Experiments:
[1] = test system: HCT-116; test: Growth inhibition of human HCT116 cells after 7 days by clonogenic survival assay; assay type: functional; settings: HCT-116, 168 h
[2] = test system: HCT-116; test: Cell cycle arrest in human HCT116 cells assessed as accumulation at G1 phase at 20 uM after 24 to 48 hrs by propidium iodide staining based flow cytometry (reference value: 51 to 58.9%); assay type: functional
[3] = test system: HCT-116; test: Downregulation of cyclin B1 expression in human HCT116 cells at 20 uM by Western blot analysis; assay type: functional, cell-based; settings: TDE = time-dependent effect
[4] = test system: HCT-116; test: Induction of apoptosis in human HCT116 cells assessed as caspase 9 cleavage at 20 uM after 36 hrs by Western blot analysis; assay type: functional, cell-based
[5] = test system: HCT-116; test: Downregulation of cyclin D1 expression in human HCT116 cells at 20 uM by Western blot analysis; assay type: functional, cell-based; settings: TDE = time-dependent effect
[6] = test system: HCT-116; test: Cytotoxicity against human HCT116 cells assessed as decrease in cell viability after 24 hrs by WST-8 based CCK-8 assay; assay type: functional
[7] = test system: HCT-116; test: Cell cycle arrest in human HCT116 cells assessed as accumulation at G1 phase at 10 uM after 24 to 48 hrs by propidium iodide staining based flow cytometry (reference value: 51 to 58.9%); assay type: functional
[8] = test system: HCT-116; test: Induction of apoptosis in human HCT116 cells assessed as caspase 3 cleavage at 20 uM after 36 hrs by Western blot analysis; assay type: functional, cell-based
[9] = test system: HCT-116; test: Cell cycle arrest in human HCT116 cells assessed as accumulation at S phase at 40 uM after 24 to 48 hrs by propidium iodide staining based flow cytometry (reference value: 13 to 18%); assay type: functional
[10] = test system: HCT-116; test: Induction of apoptosis in human HCT116 cells assessed as caspase 7 cleavage at 20 uM after 36 hrs by Western blot analysis; assay type: functional, cell-based
[11] = test system: HCT-116; test: Cell cycle arrest in human HCT116 cells assessed as accumulation at sub-G1 phase at 20 uM after 48 hrs by propidium iodide staining based flow cytometry (reference value: 4%); assay type: functional
[12] = molecular target: T1, Aurora kinase A (Homo sapiens) (UniProt O14965); test: Inhibition of aurora A phosphorylation at Thr-288 in human HCT116 cells at 20 uM by Western blot analysis; assay type: cell-based; settings: TDE = time-dependent effect
T1 sequence (whole entry): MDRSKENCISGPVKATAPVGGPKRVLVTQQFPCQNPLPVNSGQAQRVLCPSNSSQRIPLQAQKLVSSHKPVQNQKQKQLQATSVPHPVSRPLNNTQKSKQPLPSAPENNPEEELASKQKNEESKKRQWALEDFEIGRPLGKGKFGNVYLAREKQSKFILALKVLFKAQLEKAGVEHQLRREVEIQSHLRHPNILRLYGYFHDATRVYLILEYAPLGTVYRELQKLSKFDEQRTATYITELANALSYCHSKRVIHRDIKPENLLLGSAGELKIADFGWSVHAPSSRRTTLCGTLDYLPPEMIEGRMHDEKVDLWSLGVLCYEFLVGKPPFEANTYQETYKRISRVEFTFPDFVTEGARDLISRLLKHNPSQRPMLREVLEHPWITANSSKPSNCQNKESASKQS

[13] = test system: HCT-116; test: Cell cycle arrest in human HCT116 cells assessed as accumulation at G1 phase at 40 uM after 24 to 48 hrs by propidium iodide staining based flow cytometry (reference value: 51 to 58.9%); assay type: functional
[14] = molecular target: T2, Aurora kinase B (Homo sapiens, UniProt Q96GD4); test: Inhibition of aurora B phosphorylation at Thr-232 in human HCT116 cells at 20 uM by Western blot analysis; assay type: cell-based; settings: TDE = time-dependent effect
T2 sequence (Q96GD4 whole entry): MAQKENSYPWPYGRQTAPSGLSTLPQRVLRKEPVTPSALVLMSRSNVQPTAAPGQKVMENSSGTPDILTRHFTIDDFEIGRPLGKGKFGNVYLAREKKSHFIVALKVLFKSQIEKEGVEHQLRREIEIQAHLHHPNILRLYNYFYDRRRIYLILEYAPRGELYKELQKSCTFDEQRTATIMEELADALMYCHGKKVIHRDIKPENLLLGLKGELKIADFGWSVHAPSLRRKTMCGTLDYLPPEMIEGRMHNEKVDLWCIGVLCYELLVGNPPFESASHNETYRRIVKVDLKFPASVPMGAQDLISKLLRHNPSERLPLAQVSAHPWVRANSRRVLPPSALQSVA

[15] = test system: HCT-116; test: Cell cycle arrest in human HCT116 cells assessed as accumulation at G1 phase after 24 to 48 hrs by propidium iodide staining based flow cytometry; assay type: functional
[16] = molecular target: T3, Aurora kinase A (Homo sapiens, UniProt O14965); test: Inhibition of human recombinant N-terminal His6-tagged full-length aurora A expressed in Sf21 insect cells using ER-alpha as substrate after 25 mins by immunoblot analysis
T3 sequence (O14965 whole entry): T1 sequence (whole entry)

[17] = test system: HCT-116; test: Cell cycle arrest in human HCT116 cells assessed as accumulation at S phase at 20 uM after 24 to 48 hrs by propidium iodide staining based flow cytometry (reference value: 13 to 18%); assay type: functional
[18] = test system: HCT-116; test: Cell cycle arrest in human HCT116 cells assessed as accumulation at G2/M phase at 20 uM after 24 to 48 hrs by propidium iodide staining based flow cytometry (reference value: 22.9 to 24%); assay type: functional
[19] = test system: HCT-116; test: Induction of apoptosis in human HCT116 cells assessed as PARP cleavage at 20 uM after 36 hrs by Western blot analysis; assay type: functional, cell-based
[20] = molecular target: T2, Aurora kinase B; test: Inhibition of aurora B in human HCT116 cells assessed as decrease in histone H3 phosphorylation at Ser-10 at 20 uM by Western blot analysis; assay type: cell-based; settings: TDE = time-dependent effect
[21] = species: Homo sapiens; test: Selectivity ratio of IC50 for human recombinant N-terminal His6-tagged full-length aurora A to IC50 for human recombinant His-tagged aurora B
[22] = molecular target: T4, Aurora kinase C (Homo sapiens) (UniProt Q9UQB9); test: Inhibition of aurora C phosphorylation at Thr-198 in human HCT116 cells at 20 uM by Western blot analysis; assay type: cell-based; settings: TDE = time-dependent effect
T4 sequence (whole entry): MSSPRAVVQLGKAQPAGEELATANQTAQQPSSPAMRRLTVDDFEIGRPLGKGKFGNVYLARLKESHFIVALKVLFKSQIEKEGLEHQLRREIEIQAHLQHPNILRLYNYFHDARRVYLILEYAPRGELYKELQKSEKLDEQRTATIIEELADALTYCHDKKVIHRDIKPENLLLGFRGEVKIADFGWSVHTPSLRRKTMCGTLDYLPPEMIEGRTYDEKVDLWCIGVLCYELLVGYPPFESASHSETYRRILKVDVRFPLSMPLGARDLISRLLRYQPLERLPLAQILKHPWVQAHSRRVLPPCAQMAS

[23] = test system: HCT-116; test: Cell cycle arrest in human HCT116 cells assessed as accumulation at G2/M phase at 10 uM after 24 to 48 hrs by propidium iodide staining based flow cytometry (reference value: 22.9 to 24%); assay type: functional
[24] = test system: HCT-116; test: Cell cycle arrest in human HCT116 cells assessed as accumulation at G2/M phase at 40 uM after 24 to 48 hrs by propidium iodide staining based flow cytometry (reference value: 22.9 to 24%); assay type: functional
[25] = molecular target: T2, Aurora kinase B; test: Inhibition of human recombinant His-tagged aurora B expressed in baculovirus infected Sf21 insect cells by Western blot analysis
[26] = molecular target: T1, Aurora kinase A (Homo sapiens); test: Inhibition of aurora A in human HCT116 cells assessed as decrease in histone H3 phosphorylation at Ser-10 at 20 uM by Western blot analysis; assay type: cell-based; settings: TDE = time-dependent effect
[27] = test system: HCT-116; test: Cell cycle arrest in human HCT116 cells assessed as accumulation at S phase at 10 uM after 24 to 48 hrs by propidium iodide staining based flow cytometry (reference value: 13 to 18%); assay type: functional

COc1cccc(NC(=S)N2N=C(c3ccc4ccccc4c3O)CC2c2ccccc2OC)c1 (stereo not given)
GI50 ([1]; read-out: GI50): 445 nM | GI50 ([1]; read-out: pGI50 (converted)): 447 nM

COc1ccc(C2CC(c3ccc4ccccc4c3O)=NN2C(=S)Nc2ccc(OC)cc2OC)cc1 (stereo not given)
GI50 ([1]; read-out: GI50): 2470 nM | GI50 ([1]; read-out: pGI50 (converted)): 2450 nM

COc1ccc(C2CC(c3ccc4ccccc4c3O)=NN2C(=S)Nc2cccc(OC)c2)cc1 (stereo not given)
Activity [2]: 18 - 43.2% | Activity [3]: Tde | Activity [4]: Active | Activity [5]: Tde | Activity [6]: Dose-dependent effect | Activity [7]: 45.6% | Activity [8]: Active | Activity [9]: 29.4% | Activity [10]: Active | Activity [11]: 17% | inhibition [12]: Tde | Activity [13]: 36.8% | inhibition [14]: Tde | Activity [15]: Dose-dependent effect | IC50 [16]: 105000 nM | Activity [17]: 27.4 - 28% | Activity [18]: 25.7 - 27% | Activity [19]: Active | inhibition [20]: Tde | Ratio IC50 [21]: 12.3 | inhibition [22]: Tde | GI50 ([1]; read-out: GI50): 196 nM | GI50 ([1]; read-out: pGI50 (converted)): 195 nM | Activity [23]: 26.8% | Activity [24]: 30.8% | IC50 [25]: 8530 nM | inhibition [26]: Tde | Activity [27]: 23.7%

COc1ccc(NC(=S)N2N=C(c3ccc4ccccc4c3O)CC2c2ccccc2OC)c(OC)c1 (stereo not given)
GI50 ([1]; read-out: GI50): 4200 nM | GI50 ([1]; read-out: pGI50 (converted)): 4170 nM

COc1cccc(NC(=S)N2N=C(c3ccc4ccccc4c3O)CC2c2cccc(OC)c2)c1 (stereo not given)
GI50 ([1]; read-out: GI50): 272 nM | GI50 ([1]; read-out: pGI50 (converted)): 269 nM

COc1ccc(NC(=S)N2N=C(c3c(O)ccc4ccccc34)CC2c2ccccc2OC)cc1 (stereo not given)
GI50 ([1]; read-out: GI50): 742 nM | GI50 ([1]; read-out: pGI50 (converted)): 741 nM

COc1ccccc1C1CC(c2ccc3ccccc3c2O)=NN1C(=S)Nc1ccccc1 (stereo not given)
GI50 ([1]; read-out: GI50): 742 nM | GI50 ([1]; read-out: pGI50 (converted)): 741 nM

COc1cccc(C2CC(c3ccc4ccccc4c3O)=NN2C(=S)Nc2ccccc2)c1 (stereo not given)
GI50 ([1]; read-out: GI50): 321 nM | GI50 ([1]; read-out: pGI50 (converted)): 324 nM

COc1ccccc1C1CC(c2c(O)ccc3ccccc23)=NN1C(=S)Nc1ccccc1 (stereo not given)
GI50 ([1]; read-out: GI50): 2500 nM | GI50 ([1]; read-out: pGI50 (converted)): 2510 nM

COc1ccccc1C1CC(c2ccc3ccccc3c2O)=NN1C(=S)Nc1cc(OC)c(OC)c(OC)c1 (stereo not given)
GI50 ([1]; read-out: GI50): 223 nM | GI50 ([1]; read-out: pGI50 (converted)): 224 nM

COc1ccc(C2CC(c3ccc4ccccc4c3O)=NN2C(=S)Nc2cc(OC)c(OC)c(OC)c2)cc1 (stereo not given)
GI50 ([1]; read-out: GI50): 208 nM | GI50 ([1]; read-out: pGI50 (converted)): 209 nM

COc1ccc(NC(=S)N2N=C(c3ccc4ccccc4c3O)CC2c2ccccc2OC)cc1 (stereo not given)
GI50 ([1]; read-out: GI50): 369 nM | GI50 ([1]; read-out: pGI50 (converted)): 372 nM

COc1cccc(C2CC(c3ccc4ccccc4c3O)=NN2C(=S)Nc2ccc(OC)cc2OC)c1 (stereo not given)
GI50 ([1]; read-out: GI50): 2430 nM | GI50 ([1]; read-out: pGI50 (converted)): 2450 nM

COc1ccc(C2CC(c3ccc4ccccc4c3O)=NN2C(=S)Nc2ccccc2)cc1 (stereo not given)
GI50 ([1]; read-out: GI50): 239 nM | GI50 ([1]; read-out: pGI50 (converted)): 240 nM

COc1ccccc1NC(=S)N1N=C(c2ccc3ccccc3c2O)CC1c1ccccc1OC (stereo not given)
GI50 ([1]; read-out: GI50): 4920 nM | GI50 ([1]; read-out: pGI50 (converted)): 4900 nM

COc1ccc(NC(=S)N2N=C(c3ccc4ccccc4c3O)CC2c2cccc(OC)c2)cc1 (stereo not given)
GI50 ([1]; read-out: GI50): 318 nM | GI50 ([1]; read-out: pGI50 (converted)): 316 nM

COc1cccc(C2CC(c3ccc4ccccc4c3O)=NN2C(=S)Nc2ccccc2OC)c1 (stereo not given)
GI50 ([1]; read-out: GI50): 3920 nM | GI50 ([1]; read-out: pGI50 (converted)): 3890 nM

COc1ccccc1NC(=S)N1N=C(c2c(O)ccc3ccccc23)CC1c1ccccc1OC (stereo not given)
GI50 ([1]; read-out: GI50): 3970 nM | GI50 ([1]; read-out: pGI50 (converted)): 3980 nM

COc1ccccc1C1CC(c2c(O)ccc3ccccc23)=NN1C(=S)Nc1cc(OC)c(OC)c(OC)c1 (stereo not given)
GI50 ([1]; read-out: GI50): 994 nM | GI50 ([1]; read-out: pGI50 (converted)): 1000 nM

COc1ccc(C2CC(c3ccc4ccccc4c3O)=NN2C(=S)Nc2ccccc2OC)cc1 (stereo not given)
GI50 ([1]; read-out: GI50): 3540 nM | GI50 ([1]; read-out: pGI50 (converted)): 3550 nM

COc1cccc(C2CC(c3ccc4ccccc4c3O)=NN2C(=S)Nc2cc(OC)c(OC)c(OC)c2)c1 (stereo not given)
GI50 ([1]; read-out: GI50): 201 nM | GI50 ([1]; read-out: pGI50 (converted)): 200 nM

COc1ccc(NC(=S)N2N=C(c3ccc4ccccc4c3O)CC2c2ccc(OC)cc2)cc1 (stereo not given)
GI50 ([1]; read-out: GI50): 234 nM | GI50 ([1]; read-out: pGI50 (converted)): 234 nM

— ChEMBL document CHEMBL4425179, “Colorectal anticancer activities of polymethoxylated 3-naphthyl-5-phenylpyrazoline-carbothioamides” (Bioorg Med Chem Lett, 2016)
